Experimental data from US4576760A, “Hydroquinone sulfate derivatives and production thereof” (Takeda Chemical Industries, Ltd., priority 1983, dated 1986).

Columns and labels:
cAMP phosphodiesterase = assay: Action of inhibiting cAMP phosphodiesterase (method of Butcher and Sutherland; inorganic phosphoric acid produced from cyclic AMP); type: biochemical; details: phosphodiesterase from beef heart and 5'-nucleotidase
Procedure: In accordance with the method of Butcher and Sutherland [J. Biol. Chem., 237, 1244 (1962)], the action of inhibiting cAMP phosphodiesterase was determined.
**Amounts of inorganic phosphoric acid produced by decomposition of cycli
AMP with phosphodiesterase from beef heart and 5nucleotidase.

peroxidation of lipids = assay: Inhibition rate of peroxidation of lipids (method of Kornbrust and Mavis; malondialdehyde formed in homogenized rat livers with NADPH/Fe++); type: biochemical; details: homogenized livers of rats
Procedure: In accordance with the method of Kornbrust and Mavis [Mol. Pharm., 17, 400 (1980)], inhibition rate of peroxidation of lipids was determined.
Note*: Homogenized livers of rats were incubated in the presence of
NADPH/Fe^++. The amounts of malondialdehyde formed due to the
peroxidation of lipids were compared.

## COc1c(O)c(C)c(CCCCCCCCCCO)c(OS(=O)(=O)O)c1OC [6-(10-hydroxydecyl)-2,3-dimethoxy-5-methylhydroquinone 1-sulfate]
cAMP phosphodiesterase; 1 × 10^-3 M
  Inhibition rate of phosphodiesterase: 89%
cAMP phosphodiesterase; 5 × 10^-4 M
  Inhibition rate of phosphodiesterase: 70%
Peroxidation of lipids; 1 × 10^-4 M
  Inhibition Rate of Peroxidation of Lipids: 59%
Peroxidation of lipids; 1 × 10^-5 M
  Inhibition Rate of Peroxidation of Lipids: 28%
